Measured values as given in US12702715B2, “Targeted RNA degradation allows precision repurposing of protein-targeted small molecule medicines to RNA” (University of Florida Research Foundation, Incorporated, priority 2020, dated 2026).
Entries after “also recorded” stand apart in the source; their conditions may differ.

What was measured:
Format in all cases: cell-based, human
MDA-MB-231 cells = test: Boyden chamber invasion assay, MDA-MB-231
Experimental: Boyden Chamber Invasion Assay. MDA-MB-231 or MCF-10A cells (5×10^4) in serum free growth medium with or without compound treatment were seeded into hanging cell culture inserts (for 24-well plates) pre-coated with Matrigel. Complete growth medium was added to the bottom well. After 16-24 h, the medium was removed, and the hanging inserts were washed with 1×DPBS twice and then fixed with 4% paraformaldehyde in 1×DPBS at room temperature for 20 min. Then the inserts were washed twice with 1×DPBS and stained with 0.1% (w/v) crystal violet 1×DPBS for 20 min. The inserts were washed twice with nanopure water and once with 1×DPBS. Cells on the surface of the Matrigel (non-invasive) were removed with cotton swabs and invading cells were counted and imaged under a microscope.

miR-21 = test: RT-qPCR of mature miR-21 levels in MDA-MB-231 cells; conditions: for reduction of mature miR-21 levels: 1 μM; for mature miR-21 levels: MDA-MB-231, RT-qPCR
Experimental: Cell Culture. Cells were cultured at 37° C. and 5% CO2. […] For compound treatment, compound stocks either in DMSO or water were diluted in growth medium and added to cells for the indicated time. […] After transfection, the medium was replaced with growth medium containing the compound of interest, prepared as described above. The RNase L-targeting siRNA or a control siRNA was transfected with Lipofectamine RNAiMAX reagent (Invitrogen) per the manufacturer's protocol.
(§1) RNA Isolation and Quantitative Real-Time PCR (RT-qPCR). After treatment, total RNA was extracted and purified by using the Zymo Quick-RNA mini prep kit per the manufacturer's protocol. Reverse Transcription (RT) for mature miRNAs as well as pri- and pre-miR-21 was completed on 200 ng of RNA by using a miScript 11 RT kit (QIAGEN) according to manufacturer's protocol. RT of mRNAs was performed by using QScript kit (Quanta Bio). An Applied Biosystems QS5 384-well PCR system was used to complete qPCR experiments using Power Sybr Green Mater Mix (Life Technologies) as described previously^6.

pre-miR-21 [1] = test: RT-qPCR of pre-miR-21 levels in MDA-MB-231 cells; conditions: for pre-miR-21 levels: MDA-MB-231, RT-qPCR
Experimental: Cell Culture. Cells were cultured at 37° C. and 5% CO2. MDA-MB-231 cells (HTB-26, ATCC) were cultured in RMPI 1640 medium with L-glutamine & 25 mM HEPES supplemented with 1× Antibiotic/Antimycotic solution (Corning) and 10% FBS. MCF-10A cells (CRL-10317, ATCC) were cultured in 1×DMEM/F12 50/50 with L-glutamine & 15 mM HEPES (Corning) supplemented with 20% FBS, 1× Antibiotic/Antimycotic solution, 20 ng/mL human epidermal growth factor (Pepro Tech, Inc.), 10 μg/mL insulin (Sigma-Aldrich), and […] hydrocortisone (Pfaltz & Bauer). For compound treatment, compound stocks either in DMSO or water were diluted in growth medium and added to cells for the indicated time. Plasmid DNA to overexpress pre-miR-21 in pcDNA 3.1 (Addgene 21114) or a plasmid DNA encoding the pre-miR-21 mutant (custom purchased from GenScript USA, Inc.) was transfected with jetPRIME per the manufacturer's protocol. After transfection, the medium was replaced with growth medium containing the compound of interest, prepared as described above. The RNase L-targeting siRNA or a control siRNA was transfected with Lipofectamine RNAiMAX reagent (Invitrogen) per the manufacturer's protocol.
as §1

[2] = test system: RTK / phosphorylation of ERK (pERK); test: Western blot of ERK phosphorylation (functional RTK inhibition) in MDA-MB-231 cells; conditions: for IC50: Homo sapiens, MDA-MB-231; for dose inhibiting ERK phosphorylation to the similar extent: Western blot quantification
Experimental: Western Blotting. MDA-MB-231 cells were plated in 6-well plates. […] The cells were harvested by trypsinization, and total protein was extracted with MPER (Mammalian Protein Extraction Reagent, Thermo Scientific) as previously described^6. Protein concentrations were determined by using a Pierce Micro BCA Protein Assay kit (Fisher Scientific). […] ImageJ software was used for quantification of the protein bands. […] In each case, the secondary antibody was diluted two times more than the primary antibody.

PTEN = PTEN luciferase assay; conditions: MDA-MB-231
Experimental: PTEN Luciferase Assay. To study de-repression of PTEN, a luciferase-based cellular assay was performed as previously described^6. Briefly, MDA-MB-231 cells (~60% confluency) in 48-well plates were co-transfected with plasmids encoding Renilla luciferase (for normalization) and firefly luciferase fused to the 3′ UTR of PTEN by using Lipofectamine 2000 according to the manufacturer's protocol. After 5 h, the cells were treated with the compounds diluted in growth medium. Luciferase assay were then completed as previously described^4, 9.

pre-miR-21 [3] = test: Cellular Chem-CLIP and C-Chem-CLIP to study occupancy of pre-miR-21
Experimental: Cellular Chem-CLIP and C-Chem-CLIP to Study Occupancy of pre-miR-2L MDA-MB-231 cells in 100 mm dishes (~90% confluency) were treated with 4 or 5 for 6 h at 37° C. Then the cells were washed with 1×DPBS and cross-linked under 365 nm light for 10 min in ice cold 1×DPBS. The cells were harvested by scraping and pelleted by centrifugation. Total RNA was extracted by using the miRNeasy mini kit (Qiagen) per the manufacturer's protocol. Approximately 50 μg of total RNA was clicked to disulfide biotin azide as described in the “In Vitro Chem-CLIP and Competitive Chem-CLIP (C-Chem-CLIP)” section. Streptavidin beads (10 μL) were added, and the samples were incubated, with shaking, for 2 h at 37° C. The beads were then washed with 1× Wash Buffer (10 mM Tris-HCl, pH 7.0, 4 M NaCl, 1 mM EDTA) three times and then once with nanopure water. Bound RNAs were eluted from the beads by incubating with 200 μL of 1:1 TCEP (200 mM) pre-reduced with 600 mM of K2CO3 for 30 min at 37° C. The reaction was quenched by treatment with an equal volume of 400 mM of iodoacetamide for 30 min at room temperature. The supernatant was collected, and the beads were washed once with nanopure water: the water was added to the eluant. The combined eluant was cleaned up using RNAClean XP beads according to the manufacturer's protocol. The obtained RNA was then subjected to RT-qPCR. Enrichment of pre-miR-21 was calculated as previously described^6. Cellular C-Chem-CLIP was completed by pre-treating with 1 (1 or 5 μM) or 3 (1 or 5 μM) for 6 h, followed by dosing with 4 (5 μM) for 6 h. Sample preparation and data analysis were completed as described above for cellular Chem-CLIP studies.

Compound | invasion of MDA-MB-231 cells (MDA-MB-231 cells) | reduction of mature miR-21 levels (miR-21; MDA-MB-231) | concentration giving a reduction of mature miR-21 similar to 5 μM of 1 (miR-21; MDA-MB-231) [nM] | fold increase in potency / miR-21 inhibitory activity compared with 1 (miR-21; MDA-MB-231) [fold] | mature miR-21 levels (miR-21) | cleavage of pre-miR-21 upon knock down of RNase L with an siRNA (pre-miR-21 [1]; MDA-MB-231) | pre-miR-21 levels (pre-miR-21 [1]) | fold decrease of RTK inhibition relative to 1 [2] [fold] | shift of selectivity toward miR-21 over RTK ([2]; 25-fold (miR-21) × 100-fold (RTK), relative to 1) | IC50 [2] [µM] | inhibition of ERK phosphorylation compared to 1 ([2]; Western blot) | dose inhibiting ERK phosphorylation to the similar extent [2] [µM] | PTEN expression (luciferase-based assay) (PTEN) | competition of pull-down of pre-miR-21 with 4 (pre-miR-21 [3]; increasing concentrations, 4 constant) | decrease of mature miR-21 levels (miR-21; 5 μM dose, MDA-MB-231) [%] | competition of cleavage of pre-miR-21 by RIBOTAC 2 (pre-miR-21 [1]; constant concentration of 2 (1 μM), increasing competitor) | reaction with / pull-down of pre-miR-21 in cells (pre-miR-21 [3]; MDA-MB-231)
CCOC(=O)C1=C(Nc2ccccc2)S/C(=C\c2ccc(OCCOCCOCCOCCNC(=O)NCCN3CCN(c4ccc5[nH]c(-c6c(N)c7c(F)cccc7[nH]c6=O)nc5c4)CC3)c(O)c2)C1=O [Compound 2, Ribotac-Dovitinib] | reduced the invasive characteristic | ~ 45±9% | 200 | 25 | reduced | reduced; also recorded: repressed cleavage | decreased; also recorded: reduced | 100 | 2,500 fold | 10 | reduced ability to inhibit ERK phosphorylation compared to 1 | 5 | derepressed |  |  |  | 
CN1CCN(c2ccc3nc(-c4c(N)c5c(F)cccc5[nH]c4=O)[nH]c3c2)CC1 [Compound 1, Dovitinib, reference compound] | inhibited invasiveness; also recorded: reduced | not reduced |  |  | significantly reducing mature miR-21 levels; also recorded: reduced |  | increased; also recorded: enhanced |  |  | 0.1 |  | 0.05 | derepressed | similarly diminished | 32±4 | competed away cleavage | 
C#CCCC1(CCC(=O)NCCN2CCN(c3ccc4[nH]c(-c5c(N)c6c(F)cccc6[nH]c5=O)nc4c3)CC2)N=N1 [Compound 4] |  |  |  |  | decreases |  | increases |  |  |  |  |  |  |  |  |  | reacted with pre-miR-21
